Test results taken from ChEMBL document CHEMBL1154222, “Ceratodictyols, 1-glyceryl ethers from the red alga-sponge association Ceratodictyon spongiosum/Haliclona cymaeformis” (J Nat Prod, 2009).
pIC50: −log10 of the molar value.

Tested on: HeLa
Assay: Cytotoxicity against human HeLa cells
Assay type: functional, cell-based

Q: With `CCCCCCCCC/C=C/C(=O)CCCCOC[C@@H](O)CO` [CERATODICTYOL B] as the compound, how does the pIC50 read?
A: The pIC50 was 4.17.

Q: With `CCCCCCCCCCC(=O)/C=C/CCCOC[C@@H](O)CO` [CERATODICTYOL A] as the compound, how does the pIC50 read?
A: Its pIC50 is 4.17.
